{"source": "patent US9056886B2", "about": "“Guanosine-rich modified oligonucleotides and antiproliferative activity thereof” (APTABIO THERAPEUTICS INC., priority 2009, dated 2015)", "key": {"[1]": {"test_system": "PC-3 cell line (prostate cancer cell)", "assay": "Cell apoptosis (XTT method) in PC-3 cells", "assay_type": "cell-based", "conditions": "PC3 (Prostate Cancer Cells), cultured six days, XTT", "description": "(§1) Each oligonucleotide was diluted in 10 mM Tris-HCl (pH 7.4) to a final concentration of 100 μM. The diluted solution was placed at 94° C. for 5 minutes and then quickly placed them on ice and left therein for 5 minutes. The resultant was added with 2M KCl to a final concentration of 50 mM, left at 60° C. for 3 hours and then slowly cooled down to room temperature.\n(§2) One day before the experiment, 190 μL of culture, wherein PC-3 cell line(prostate cancer cell) was suspended at a concentration of 10^3-10^4/mL, was inoculated respectively into each well of a 96 well plate. The next day, 10 μL of the oligonucleotide solution prepared in Example 1 was added and cultured for six days. Six days after the inoculation, cell apoptosis rate measured by means of XTT method [JBC 1999, 26369]."}, "[2]": {"test_system": "MCF7-DX (Breast Cancer Cells), a drug-resistance cell line", "assay": "Cell apoptosis (XTT method) in MCF7-DX cells", "assay_type": "cell-based", "description": "[Worded in the source for another cell line; this cell line is reported under the same test.] as §1, §2\nAs a result, it was confirmed that the cell apoptosis rate of APT-2001, APT-2002 and APT-2003 (the novel modified oligonucleotides of the present invention), was 3-10 times higher than those of APT-4001 (positive control) and APT-4002 (negative control) as measured in terms of IC50 or IC90 (FIG. 2). […] In addition, the cell apoptotic activity of the oligonucleotides, prepared according to the present invention over the K562 CML (chronic myeloid leukemia), MV-4-11 AML (acute leukemia) cells, were also verified."}}, "note": "[5FU] = 5-fluorouracil base (5-fluoro-2'-deoxyuridine unit); [GEM] = 2',2'-difluoro-2'-deoxycytidine (gemcitabine); [5FC] = 5-fluoro-2'-deoxycytidine; d = 2'-deoxy (DNA)"}
{"substance": "APT-2013: NNNGGNGGNGGNGGTTGTGGNGGNGGNGG (SEQ. ID. NO. 10); N=5-F-deoxyuridine, G=2-deoxy-guanosine, H=thymidine (DNA UUUGGUGGUGGUGGTTGTGGUGGUGGUGG; DNA, [5FU] at 1, 2, 3, 6, 9, 12, 21, 24, 27, backbone not given here)", "values": [{"measurement": "IC50", "setting": "[1]", "result": 90, "unit": "nM"}, {"measurement": "IC50", "setting": "[2]", "result": 660, "unit": "nM"}]}
{"substance": "APT-2020: GGTGGTGGNNNNGGTGGTGG (SEQ. ID. NO. 18); N=5-F-deoxyuridine, G=2-deoxy-guanosine, H=thymidine (DNA GGTGGTGGUUUUGGTGGTGG; DNA, [5FU] at 9, 10, 11, 12, backbone not given here)", "values": [{"measurement": "IC50", "setting": "[1]", "result": 160, "unit": "nM"}, {"measurement": "IC50", "setting": "[2]", "result": 890, "unit": "nM"}]}
{"substance": "APT-2022: GGTGGNNNNGGTGG (SEQ. ID. NO. 20); N=5-F-deoxyuridine, G=2-deoxy-guanosine, H=thymidine (DNA GGTGGUUUUGGTGG; DNA, [5FU] at 6, 7, 8, 9, backbone not given here)", "values": [{"measurement": "IC50", "setting": "[1]", "result": 110, "unit": "nM"}, {"measurement": "IC50", "setting": "[2]", "result": 790, "unit": "nM"}]}
{"substance": "APT-2023: GGNGGTGGNGG (SEQ. ID. NO. 21); N=5-F-deoxyuridine, G=2-deoxy-guanosine, H=thymidine (DNA GGUGGTGGUGG; DNA, [5FU] at 3, 9, backbone not given here)", "values": [{"measurement": "IC50", "setting": "[1]", "result": 260, "unit": "nM"}, {"measurement": "IC50", "setting": "[2]", "result": 1860, "unit": "nM"}]}
{"substance": "APT-2031: GGTGGTGGTNNTGGTGGTGG (SEQ. ID. NO. 23); N=5-F-deoxyuridine, G=2-deoxy-guanosine, H=thymidine (DNA GGTGGTGGTUUTGGTGGTGG; aptamer; DNA, [5FU] at 10, 11, backbone not given here)", "values": [{"measurement": "IC50", "setting": "[1]", "result": "> 10000", "unit": "nM"}, {"measurement": "IC50", "setting": "[2]", "result": 1500, "unit": "nM"}]}
{"substance": "APT-2032: GGTGGTGGTTNTGGTGGTGG (SEQ. ID. NO. 24); N=5-F-deoxyuridine, G=2-deoxy-guanosine, H=thymidine (DNA GGTGGTGGTTUTGGTGGTGG; aptamer; DNA, [5FU] at 11, backbone not given here)", "values": [{"measurement": "IC50", "setting": "[1]", "result": "> 10000", "unit": "nM"}, {"measurement": "IC50", "setting": "[2]", "result": 3600, "unit": "nM"}]}
{"substance": "APT-2033: GGTGGTGGTTTNGGTGGTGG (SEQ. ID. NO. 25); N=5-F-deoxyuridine, G=2-deoxy-guanosine, H=thymidine (DNA GGTGGTGGTTTUGGTGGTGG; aptamer; DNA, [5FU] at 12, backbone not given here)", "values": [{"measurement": "IC50", "setting": "[1]", "result": "> 10000", "unit": "nM"}, {"measurement": "IC50", "setting": "[2]", "result": 3300, "unit": "nM"}]}
{"substance": "APT-2034: GGTGGTGGTNNNGGTGGTGG (SEQ. ID. NO. 26); N=5-F-deoxyuridine, G=2-deoxy-guanosine, H=thymidine (DNA GGTGGTGGTUUUGGTGGTGG; DNA, [5FU] at 10, 11, 12, backbone not given here)", "values": [{"measurement": "IC50", "setting": "[1]", "result": "> 10000", "unit": "nM"}, {"measurement": "IC50", "setting": "[2]", "result": 1200, "unit": "nM"}]}
{"substance": "APT-2035: GGTGGTGGTTNTGGTGGTGG (SEQ. ID. NO. 24); N=2′,2′-difluoro deoxycytidine, G=2-deoxy-guanosine, H=thymidine (2',2'-difluoro deoxycytidine modified nucleosides, chemistry not fully specified)", "values": [{"measurement": "IC50", "setting": "[1]", "result": 35, "unit": "nM"}, {"measurement": "IC50", "setting": "[2]", "result": 7, "unit": "nM"}]}
{"substance": "APT-2040: GGTGGTGGTGGTTNTGGTGGTGGTGG (SEQ. ID. NO. 30); N=5-F-deoxyuridine, G=2-deoxy-guanosine, H=thymidine (DNA GGTGGTGGTGGTTUTGGTGGTGGTGG; DNA, [5FU] at 14, backbone not given here)", "values": [{"measurement": "IC50", "setting": "[2]", "result": "> 1000", "unit": "nM"}]}
{"substance": "APT-2042: GGNGGNGGNGGTTGTGGNGGNGGNGG (SEQ. ID. NO. 32); N=5-F-deoxyuridine, G=2-deoxy-guanosine, H=thymidine (5-F-deoxyuridine modified nucleosides)", "values": [{"measurement": "IC50", "setting": "[2]", "result": 500, "unit": "nM"}]}
{"substance": "APT-2043: GGNGGNGGTGGTTGTGGTGGNGGNGG (SEQ. ID. NO. 33); N=5-F-deoxyuridine, G=2-deoxy-guanosine, H=thymidine (5-F-deoxyuridine modified nucleosides)", "values": [{"measurement": "IC50", "setting": "[2]", "result": 600, "unit": "nM"}]}
{"substance": "APT-2044: GGNGGTGGTGGTTGTGGTGGTGGNGG (SEQ. ID. NO. 34); N=5-F-deoxycytidine, G=2-deoxy-guanosine, H=thymidine (DNA GGCGGTGGTGGTTGTGGTGGTGGCGG; DNA, [5FC] at 3, 24, backbone not given here; G-quadruplex forming oligonucleotide)", "values": [{"measurement": "IC50", "setting": "[2]", "result": "> 1000", "unit": "nM"}]}
{"substance": "APT-2054: GGTGGTGGTGGTTNTGGTGGTGGTGG (SEQ. ID. NO. 30); N=2′,2′-difluoro deoxycytidine, G=2-deoxy-guanosine, H=thymidine (DNA GGTGGTGGTGGTTCTGGTGGTGGTGG; sugars from the 5' end d13 [GEM]1 d12, backbone not given here; G-quadruplex forming oligonucleotide)", "values": [{"measurement": "IC50", "setting": "[1]", "result": "< 300", "unit": "nM"}, {"measurement": "IC50", "setting": "[2]", "result": "< 300", "unit": "nM"}]}
{"substance": "APT-2059: GGTGGTGGTNNTGGTGGTGG (SEQ. ID. NO. 23); N=2′,2′-difluoro deoxycytidine, G=2-deoxy-guanosine, H=thymidine (2',2'-difluoro deoxycytidine modified nucleosides, chemistry not fully specified)", "values": [{"measurement": "IC50", "setting": "[1]", "result": 15, "unit": "nM"}, {"measurement": "IC50", "setting": "[2]", "result": 4, "unit": "nM"}]}
{"substance": "APT-2060: GGTGGTGGNTGTGGTGGTGG (SEQ. ID. NO. 37); N=2′,2′-difluoro deoxycytidine, G=2-deoxy-guanosine, H=thymidine (aptamer; listed as DNA, chemistry not fully specified)", "values": [{"measurement": "IC50", "setting": "[1]", "result": 40, "unit": "nM"}, {"measurement": "IC50", "setting": "[2]", "result": 23, "unit": "nM"}]}
{"substance": "APT-2061: GGTGGTGGTNGTGGTGGTGG (SEQ. ID. NO. 38); N=2′,2′-difluoro deoxycytidine, G=2-deoxy-guanosine, H=thymidine (DNA GGTGGTGGTCGTGGTGGTGG; aptamer; sugars from the 5' end d9 [GEM]1 d10, backbone not given here; G-quadruplex forming oligonucleotide)", "values": [{"measurement": "IC50", "setting": "[1]", "result": 41, "unit": "nM"}, {"measurement": "IC50", "setting": "[2]", "result": 22, "unit": "nM"}]}
{"substance": "APT-2067: GGTGGTGGTGGTNGTGGTGGTGGTGG (SEQ. ID. NO. 43); N=2′,2′-difluoro deoxycytidine, G=2-deoxy-guanosine, H=thymidine (DNA GGTGGTGGTGGTCGTGGTGGTGGTGG; sugars from the 5' end d12 [GEM]1 d13, backbone not given here; G-quadruplex forming oligonucleotide)", "values": [{"measurement": "IC50", "setting": "[2]", "result": 24, "unit": "nM"}]}
{"substance": "APT-2068: GGTGGTGGTGGTTGNGGTGGTGGTGG (SEQ. ID. NO. 31); N=2′,2′-difluoro deoxycytidine, G=2-deoxy-guanosine, H=thymidine (2',2'-difluoro deoxycytidine modified nucleosides, chemistry not fully specified)", "values": [{"measurement": "IC50", "setting": "[2]", "result": 23, "unit": "nM"}]}
{"substance": "APT-2069: GGTGGTGGTGGTNGNGGTGGTGGTGG (SEQ. ID. NO. 44); N=2′,2′-difluoro deoxycytidine, G=2-deoxy-guanosine, H=thymidine (2',2'-difluoro deoxycytidine modified nucleosides, chemistry not fully specified)", "values": [{"measurement": "IC50", "setting": "[2]", "result": 10, "unit": "nM"}]}
{"substance": "APT-2071: GGTGGNGGTGGTTGTGGTGGNGGTGG (SEQ. ID. NO. 46); N=2′,2′-difluoro deoxycytidine, G=2-deoxy-guanosine, H=thymidine (2',2'-difluoro deoxycytidine modified nucleosides, chemistry not fully specified)", "values": [{"measurement": "IC50", "setting": "[2]", "result": 15, "unit": "nM"}]}
{"substance": "APT-2072: GGTGGTGGTTNTGGTGGTGGN (SEQ. ID. NO. 47); N=2′,2′-difluoro deoxycytidine, G=2-deoxy-guanosine, H=thymidine (2',2'-difluoro deoxycytidine modified nucleosides, chemistry not fully specified)", "values": [{"measurement": "IC50", "setting": "[1]", "result": 12, "unit": "nM"}]}
